For 3 molecules, EC50 results are on record in ChEMBL document CHEMBL1151141, “Antineoplastic agents, 162. Zephyranthes candida” (1990).

Values after ≈ are worked out from the molar mass of the structure shown.

The test concerns P388. Nature of the test: Cytotoxicity against mouse P388 cells. In kind it is functional. The settings on record: read-out: ED50 (the source's name).
Take `O=C1N[C@H]2[C@H](O)[C@H](O)[C@@H](O)C[C@@H]2c2cc3c(c(O)c21)OCO3`: the EC50 is 3.2 ng/mL (≈ 0.0103 µM).
On to `O=C1N[C@H]2[C@H](O)[C@H](O)[C@@H](O)C[C@H]2c2cc3c(c(O)c21)OCO3`, for which the EC50 amounted to 24 ng/mL (≈ 0.0776 µM).
Turning to `CC(=O)Oc1c2c(cc3c1C(=O)N[C@H]1[C@H](OC(C)=O)[C@H](OC(C)=O)[C@@H](OC(C)=O)C[C@H]31)OCO2`, the EC50 was 3.2 ng/mL (≈ 0.0067 µM).
